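The compound was tested at five concentrations on cells cultured in 96-well plates, with a 48-hour exposure period. GI50 is the concentration that inhibits growth by half. At the TGI there is no net growth.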
What was measured:
Assay in all cases: inhibition of tumour cell growth, NCI panel, 48 h
HCT-116 colon = test system: HCT-116 colon
HL-60(TB) leukemia = test system: HL-60(TB) leukemia
HOP-62 NSCLC = test system: HOP-62 NSCLC
HS 578T breast = test system: HS 578T breast
K-562 leukemia = test system: K-562 leukemia
MDA-MB-231 breast = test system: MDA-MB-231 breast
OVCAR-3 ovarian = test system: OVCAR-3 ovarian
SF-268 CNS = test system: SF-268 CNS
SR leukemia = test system: SR leukemia
TK-10 renal = test system: TK-10 renal

Structure (SMILES) | GI50 (HCT-116 colon) [µM] | TGI (HCT-116 colon) [µM] | GI50 (HL-60(TB) leukemia) [µM] | TGI (HL-60(TB) leukemia) [µM] | GI50 (HOP-62 NSCLC) [µM] | TGI (HOP-62 NSCLC) [µM] | GI50 (HS 578T breast) [µM] | TGI (HS 578T breast) [µM] | GI50 (K-562 leukemia) [µM] | TGI (K-562 leukemia) [µM] | GI50 (MDA-MB-231 breast) [µM] | TGI (MDA-MB-231 breast) [µM] | GI50 (OVCAR-3 ovarian) [µM] | TGI (OVCAR-3 ovarian) [µM] | GI50 (SF-268 CNS) [µM] | TGI (SF-268 CNS) [µM] | GI50 (SR leukemia) [µM] | TGI (SR leukemia) [µM] | GI50 (TK-10 renal) [µM] | TGI (TK-10 renal) [µM]
O=C(/C(=C\c1c(-c2ccccc2)[nH]c2ccccc12)S(=O)(=O)c1ccccc1)c1ccccc1 | 4.89 | > 100 | 4.98 | > 100 | > 100 | > 100 | 39.5 | > 100 | 6.53 | > 100 | > 100 | > 100 | > 100 | > 100 | > 100 | > 100 | 9.91 | > 100 | > 100 | > 100
COc1cc2c(Nc3cc(Cl)c(OC)c(Cl)c3)c(C#N)cnc2cc1OCCCN1CCN(C)CC1 | 1.21 | 3.49 | 1.78 | 4.03 | 3.39 | 12.1 | 2.82 | 11.5 | 0.574 | 8.41 | 2.6 | 5.2 | 1.65 | 4.49 | 1.9 | 6.92 | 1.53 | 4.41 | 0.253 | 2.43
Nc1ccccc1O.O.O=C(O)C1[O][Sb][O]C1C(=O)O (stereo not given) | 17.8 | 39.6 | 1.86 | 10.6 | 17.6 | 35 | 9.07 | 46.2 | 3.77 | > 36.1 | 23.6 | > 71.7 | 13.4 | 28.6 | 17.5 | > 53.4 | 2.42 | 50.6 | 18 | 32.4
CN(C)CCNCCN | – | > 100 | – | > 100 | – | > 100 | – | > 100 | – | > 100 | – | > 100 | – | > 100 | – | > 100 | – | > 100 | – | > 100
C=CC(=O)N1CN(C(=O)C=C)CN(C(=O)C=C)C1 | 1.77 | 3.33 | 3.37 | 10.3 | 12.3 | 48.1 | > 100 | > 100 | 3.01 | 9.83 | 11.5 | 35.6 | 2.57 | 7.99 | 11 | 50.6 | 2.46 | 6.82 | 2.36 | 5.7
COC(c1ccc(C(C)(C)C)cc1)(c1ccc(C(C)(C)C)cc1)c1ccc(C(C)(C)C)cc1 | – | > 100 | – | > 100 | – | > 100 | – | > 100 | – | > 100 | – | > 100 | – | > 100 | – | > 100 | – | > 100 | – | > 100

— PubChem BioAssay (NCI)
